Patent US4921855A, “New Histidyl amino acid derivatives, and pharmaceutical composition comprising the same” (Fujisawa Pharmaceutical Co., Ltd., priority 1987, dated 1990)

Legend:
[1] = test system: mean arterial blood pressure (MAP); test: Hypotensive effect after oral administration to conscious sodium-depleted cynomolgus monkeys (maximum percentage fall of MAP); assay type: in vivo, cynomolgus monkeys (Macaca fascicularis); settings: 0-6 hours
Procedure: (§1) Male or female cynomolgus monkeys (Macaca fascicularis) weighing about 2.5-3.5 kg were used. Sodium depletion was achieved by administering furosemide, 15 mg/kg subcutaneously one day before and then 10 mg/kg intravenously 30 minutes before the administration of the test compound.
(§2) Test compounds were dissolved in diluted equimolar hydrochloric acid (pH 5-6) and orally administered to conscious and trained monkeys placed in restraining chairs with pneumatic cuff positioned around the arm for oscillometric measurement of mean arterial blood pressure (MAP) (Model BP-203 NPJ, manufactured by Nippon Colin).
The Map was measured at 0 (predosing base line), 0.5, 1, 2, 3, 4 and 6 hours after administration of the test compound. The maximum hypotensive effect was calculated as the maximum percentage fall of MAP from the pretreatment value.

renin = biological target: T1, renin (Homo sapiens, UniProt P00797); test: Inhibition of human plasma renin activity (angiotensin I formation, RIA); assay type: biochemical; settings: endogenous renin and angiotensinogen, pH 6.0, 37° C, 90 minutes, RIA of Ang I
T1 construct: endogenous renin and angiotensinogen in plasma; from tissue; host or cells: pooled human plasma (EDTA) from male volunteers
T1 sequence (P00797 67-406): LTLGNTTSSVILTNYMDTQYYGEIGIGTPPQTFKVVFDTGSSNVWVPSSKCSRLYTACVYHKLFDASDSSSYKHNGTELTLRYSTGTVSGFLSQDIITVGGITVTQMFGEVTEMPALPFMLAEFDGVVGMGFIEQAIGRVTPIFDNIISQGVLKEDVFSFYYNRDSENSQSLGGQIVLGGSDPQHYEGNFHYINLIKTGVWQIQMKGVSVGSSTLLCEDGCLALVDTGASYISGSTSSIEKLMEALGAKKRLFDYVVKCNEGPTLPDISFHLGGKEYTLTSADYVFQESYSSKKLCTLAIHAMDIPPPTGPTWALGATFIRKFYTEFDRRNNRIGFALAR
Procedure: Human plasma was collected from male volunteers pretreated with no drugs and used as a pool. Disodium salt of ethylenediaminetetraacetic acid (EDTA) was used as the anticoagulant. Plasma renin activity was measured as the rate of angiotensin I (Ang I) formation after incubation (37° C) of the endogenous renin and angiotensinogen in plasma at pH 6.0. The incubation mixture contained 250 μl of plasma, 5 μl of (phenylmethyl)sulfonyl fluoride, 30 μl of buffer (sodium, potassium-phosphate, pH 6.0), and 15 μl of an appropriate concentration of test compound in 50% ethyl alcohol-water vehicle. The Ang I formed after 90 minutes of incubation was measured by radioimmunoassay (RIA) which was carried out with a commercial kit, RENCTK 100 (manufactured by Commissariat A L'energic Atomique). Samples were incubated in duplicate and each tube was measured in duplicate in the RIA. Percentage inhibition of plasma renin activity was calculated by comparing the amount of Ang I produced with and without a test compound. The concentration of test compound that inhibited plasma renin activity by 50% (IC50) was determined by Probit method.

plasma renin = test: Inhibition of plasma renin activity (PRA) after oral administration to sodium-depleted cynomolgus monkeys; assay type: in vivo, cynomolgus monkeys (Macaca fascicularis); settings: sodium-depleted conscious monkeys, 0-6 hours
Procedure: as §1, §2
Blood samples were collected at 0, 0.5, 1, 2, 4 and 6 hours after dosing from the antecubital vein of the monkey into disodium salt of EDTA coated tubes, centrifuged for 10 min. (3000 rpm, 4° C.) and plasma was obtained for determination of plasma renin activity (PRA). PRA was measured as the rate of Ang I formation with the same principle as illustrated in Test 1. 100 μl of sample plasma was mixed with 100 μl of the solution of angiotensinase inhibitors (3 mM 8-hydroxyquinoline sulfate and 5 mM 2,3-dimercaptopropanol, SB-REN-1, SORIN BIOMEDICA, Italy). Half (100 μl) of the mixture was incubated at 37° C. for one hour and Ang I formed was determined by a commercial RIA kit (DINABOTT). The remaining half (100 μl) of the reaction mixture was kept at 4° C. for one hour to measure and correct for the preexisting Ang I in the plasma. Percentage inhibition of PRA was calculated by the following formula: [formula]
A37 : the amount of angiotensin I formed by incubation at 37° C. of plasma collected before dosing the test compound
A4 : the amount of angiotensin I formed by keeping at 4° C. of plasma collected before dosing the test compound
D37 : the amount of angiotensin I formed by incubation at 37° C. of plasma collected after dosing the test compound
D4 : the amount of angiotensin I formed by keeping at 4° C. of plasma collected after dosing the test compound.

SMILES	Maximum hypotensive effect (%) ([1]; 32 mg/kg (po))	IC50 (renin)	Maximum inhibition of PRA (%) (plasma renin; 32 mg/kg (po))	Maximum hypotensive effect (%) ([1]; 3.2 mg/kg (po))	Maximum inhibition of PRA (%) (plasma renin; 3.2 mg/kg (po))
CC(C)CC[C@H](O)[C@H](CC1CCCCC1)NC(=O)[C@H](Cc1c[nH]cn1)N(C)C(=O)[C@H](Cc1ccccc1)OC(=O)N(C)CCC(=O)N1CCOCC1 [(5)]	18%	25 nM	92%	–	–
CC(C)CC[C@H](O)[C@H](CC1CCCCC1)NC(=O)[C@H](Cc1c[nH]cn1)N(C)C(=O)[C@H](Cc1ccccc1)OC(=O)N(C)CCN(C)C(=O)C(C)C [(24)]	–	8.7 nM	–	15%	93%
CC(C)CC[C@H](O)[C@H](CC1CCCCC1)NC(=O)[C@H](Cc1c[nH]cn1)N(C)C(=O)[C@H](Cc1ccccc1)OC(=O)N(C)CCN(C)C(=O)N1CCOCC1 [(23)]	–	4 nM	–	19%	99%
CC(C)CC[C@H](O)[C@H](CC1CCCCC1)NC(=O)[C@H](Cc1c[nH]cn1)N(C)C(=O)[C@H](Cc1ccccc1)OC(=O)N(C)CCC(=O)N(C)c1ccccc1 [(26)]	–	24 nM	–	–	–
